Measurements: ChEMBL document CHEMBL4118243, “Synthesis, molecular modelling studies and biological evaluation of new oxoeicosanoid receptor 1 agonists” (Bioorg Med Chem, 2018)

Tests used:
Oxoeicosanoid receptor 1 [1] = target: T1, Oxoeicosanoid receptor 1 (Homo sapiens, UniProt Q8TDS5); test: Agonist activity at human PK-tagged OXER1 expressed in CHOK1 cells assessed as EA-tagged beta-arrestin recruitment by beta-galactosidase enzyme fragment complementation assay relative to control; type: functional, cell-based
Oxoeicosanoid receptor 1 [2] = target: T1, Oxoeicosanoid receptor 1; test: Agonist activity at human PK-tagged OXER1 expressed in CHOK1 cells assessed as EA-tagged beta-arrestin recruitment by beta-galactosidase enzyme fragment complementation assay; type: functional, cell-based

T1 sequence (Q8TDS5 whole entry, the tested form may be a part): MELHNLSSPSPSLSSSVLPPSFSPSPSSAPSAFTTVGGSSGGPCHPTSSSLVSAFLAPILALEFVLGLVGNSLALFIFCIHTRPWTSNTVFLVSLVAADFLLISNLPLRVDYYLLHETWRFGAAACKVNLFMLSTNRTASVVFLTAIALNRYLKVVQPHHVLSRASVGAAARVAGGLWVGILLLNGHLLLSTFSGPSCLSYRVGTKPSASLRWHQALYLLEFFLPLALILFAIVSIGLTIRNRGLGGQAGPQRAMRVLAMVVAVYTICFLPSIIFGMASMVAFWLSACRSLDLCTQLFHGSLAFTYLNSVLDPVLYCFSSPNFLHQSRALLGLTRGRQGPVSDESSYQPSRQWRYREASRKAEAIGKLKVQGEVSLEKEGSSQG

SMILES	Emax (Oxoeicosanoid receptor 1 [1]) [%]	EC50 (Oxoeicosanoid receptor 1 [2]) [nM]
CC/C=C\C/C=C\C/C=C\C/C=C\C=C\C(=O)CCCC(=O)OC	119	2080
CC/C=C\C/C=C\C/C=C\C/C=C\C/C=C\C=C\C(=O)CCC(=O)OC	64	> 100000
CC/C=C\C/C=C\C/C=C\C/C=C\C/C=C\C=C\C(=O)CCC(=O)O	23	> 100000

Molecules with a lower EC50 (Oxoeicosanoid receptor 1 [2]), results first:

Emax (Oxoeicosanoid receptor 1 [1]) [%]	EC50 (Oxoeicosanoid receptor 1 [2]) [nM]	SMILES
133	1540	CCCCC/C=C\C/C=C\C/C=C\C=C\C(=O)CCCC(=O)OC
80	380	CC/C=C\C/C=C\C/C=C\C/C=C\C=C\C(=O)CCCC(=O)O
100	220	CCCCC/C=C\C/C=C\C/C=C\C=C\C(=O)CCCC(=O)O [5-OXO-ETE]
